Data published in patent US20220402862A1 (Intellia Therapeutics, Inc., priority 2019, published 2022).
Where “and” joins values, the source holds several entries; their conditions need not be identical. Equal entries are not always repeated.

Experiments:
[1] = pKa measurement of unformulated amine lipid (fluorescence, method of Jayaraman et al.); type: physicochemical; settings: 100 μM in 0.1 M phosphate buffer, pH 2.0-12.0
Protocol: The pKa of each amine lipid was determined according to the method in Jayaraman, et al. (Angewandte Chemie, 2012) with the following adaptations. […] Lipid was diluted to 100 μM in 0.1 M phosphate buffer (Boston Bioproducts) where the pH ranged from 2.0-12.0. Fluorescence intensity was measured using excitation and emission wavelengths of 321 nm and 448 nm.

[2] = RNA encapsulation efficiency of LNPs (Ribogreen fluorescence assay); type: physicochemical; settings: LNP; for Encapsulation (%): sg:mRNA 1:1, N/P about 6, amine lipid/DSPC/cholesterol/PEG-2k-DMG 50/9/38/3, Table 2, Experiments 2-20
In short: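 Encapsulation efficiency is (Total RNA − Free RNA)/Total RNA. Free RNA was quantified by RiboGreen fluorescence (488/525 nm, ~10 min, RT, dark) in plain TE buffer; total RNA was quantified after LNP lysis with 0.2% Triton X-100, both against RNA standard curves.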

[3] = Dynamic light scattering of LNPs: Z-average diameter, number average diameter, PDI; type: physicochemical; settings: LNP
In short: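 Values reported are the Z-average (intensity-weighted mean size), the number-average diameter and the PDI (spread of sizes, 0 = fully uniform). All three came from dynamic light scattering of LNP preparations after dilution in PBS.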

mouse TTR gene = test: In vivo editing in mouse liver, sgRNA targeting TTR (G282 or G502), % indel by NGS; design: species or system CD-1 female mice
Protocol: CD-1 female mice ranging from 6-10 weeks of age were used in each study. Animals were weighed and grouped according to body weight for preparing dosing solutions based on group average weight. LNPs were dosed via the lateral tail vein in a volume of 0.2 mL per animal (approximately 10 mL per kilogram body weight). The animals were periodically observed for adverse effects for at least 24 hours post dose. For studies measuring in vivo editing in liver, CD-1 female mice were dosed at 0.1 mg/kg unless otherwise noted. Animals were euthanized at 6 or 7 days by ex sanguination via cardiac puncture under isoflurane anesthesia. Liver tissue was collected from each animal for DNA extraction and analysis. Blood was collected into serum separator tubes or into tubes containing buffered sodium citrate for plasma as described herein. Cohorts of mice were measured for editing by Next-Generation Sequencing (NGS).
In brief, to quantitatively determine the efficiency of editing at the target location in the genome, genomic DNA was isolated and deep sequencing was utilized to identify the presence of insertions and deletions introduced by gene editing.
PCR primers were designed around the target site (e.g., within B2M), and the genomic area of interest was amplified. Additional PCR was performed according to the manufacturer's protocols (Illumina) to add the necessary chemistry for sequencing. The amplicons were sequenced on an Illumina MiSeq instrument. The reads were aligned to the mouse or rat reference genome (e.g., GRCm38) after eliminating those having low quality scores. The resulting files containing the reads were mapped to the reference genome (BAM files), where reads that overlapped the target region of interest were selected and the number of wild type reads versus the number of reads which contain an insertion, substitution, or deletion was calculated.
The editing percentage (e.g., the “indel efficiency” or “percent indels”) was defined as the total number of sequence reads with insertions or deletions over the total number of sequence reads, including wild type.
We assessed in vivo editing efficiency for materials delivered with formulations including various amine lipid compounds. Editing was measured using either G282 (SEQ ID No: 1) which targets the mouse TTR gene or G650 (SEQ ID No. 2) which targets the mouse B2M gene. Lipids described above were assessed for efficacy through in vivo editing experiments. LNPs were formulated at a 1:1 or 1:1.3 w/w ratio of sgRNA to Cas9 mRNA, and at an N/P ratio of about 6. Molar concentrations of lipids in the lipid component of the LNPs are used at mol % amine lipid/DSPC/cholesterol/PEG-2k-DMG of 50/9/38/3. The final LNPs were characterized to determine the encapsulation efficiency, polydispersity index, and average particle size according to the analytical methods provided above. Analysis of average particle size, polydispersity (PDI), total RNA content and encapsulation efficiency of RNA are shown in Table 2.
To assess whether the editing was dose responsive, experiments were performed in vivo at various LNP dose levels. Cas9 mRNA of Example 120 was formulated as LNPs with an sgRNA targeting TTR (G282, SEQ ID NO: 1; or G502, SEQ ID NO: 4).
We assessed in vivo delivery by measuring editing efficiency for materials delivered with formulations that included various amine lipid compounds. Cas9 mRNA (SEQ ID NO: 6) was formulated as LNPs with an sgRNA targetting the TTR mouse gene (SEQ ID NO: 4). LNPs were formulated at a 1:2 w/w ratio of sgRNA to Cas9 mRNA, and at an N/P ratio of about 6. Molar concentrations of lipids in the lipid component of the LNPs are used at mol % amine lipid/DSPC/cholesterol/PEG-2k-DMG of 50/9/38/3. The final LNPs compositions were characterized and analyzed as described in Example 120. Analysis of average particle size, polydispersity (PDI), total RNA content and encapsulation efficiency of RNA are shown in Table 6.

Transthyretin (TTR) = test: Serum TTR ELISA in mice after LNP dosing; type: in vivo, CD-1 female mice
In short: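 Serum mouse TTR was quantified by ELISA at 10,000-fold dilution for 0.1 mg/kg and 10,000/2,500-fold for 0.3 mg/kg. Samples came from female CD-1 mice (6–10 weeks) killed 6 or 7 days after a single intravenous LNP dose, usually 0.1 mg/kg.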

[4] = sg:mRNA 1:1, N/P 6.0, 50/9/38/3, Table 4, Experiments 101-104
[5] = sg:mRNA 1:1, N/P about 6, 50/9/38/3, Table 2, Experiments 2-20
[6] = sg:mRNA 1:2, N/P 6.0, 50/9/38/3, Table 4, Experiment 105
[7] = mouse serum TTR relative to TSS control, guide G282 experiments
[8] = mouse serum, guide G282 experiments, ELISA

Structure (SMILES)	pKa [1]	Encapsulation (%) [2]	Number mean (nm) [3, 5]	Z-avg (nm) [3, 5]	PDI [3, 5]	Serum TTR % TSS (Transthyretin (TTR); [7]) [%]	Serum TTR (Transthyretin (TTR); [8]) [µg/mL]	other results
CCCCC/C=C\C/C=C\CCCCCCCC(=O)OCC(COC(=O)CCCN(CC)CC)COC(=O)CCC(OCCCCCCCC)OCCCCCCCC (stereo not drawn) [Compound 29, 3-((4,4-bis(octyloxy)butanoyl)oxy)-2-(((4-(diethylamino)butanoyl)oxy)methyl)propyl (9Z,12Z)-octadeca-9,12-dienoate]	6.84	98%	66.92 nm and 64.63 nm	82.41 nm and 78.63 nm	–	–	–	% E [2, 4]: 99%; Number mean (nm) [3, 4]: 70 nm; PDI [3, 4]: 0.003; Z-avg (nm) [3, 4]: 84 nm; Editing Mean % Indel (mouse TTR gene; LNP i.v. 0.1 mg/kg, guide G282, Experiments 101-103): 31.4%; Editing Mean % Indel (mouse TTR gene; LNP i.v. 0.3 mg/kg, guide G282, Experiments 101-103): 54.8%; Serum TTR (Transthyretin (TTR); mouse, LNP i.v. 0.1 mg/kg, guide G282, Experiments 101-103): 663 µg/mL; Serum TTR % TSS (Transthyretin (TTR); mouse, LNP i.v. 0.1 mg/kg, guide G282, Experiments 101-103, relative to TSS control): 48%; Serum TTR (Transthyretin (TTR); mouse, LNP i.v. 0.3 mg/kg, guide G282, Experiments 101-103): 205 µg/mL; Serum TTR % TSS (Transthyretin (TTR); mouse, LNP i.v. 0.3 mg/kg, guide G282, Experiments 101-103, relative to TSS control): 15%
CCCCC/C=C\C/C=C\CCCCCCCC(=O)OCC(COC(=O)CCC(OCCCCCCCC)OCCCCCCCC)COC(=O)OCCC1CCCN1C (stereo not drawn) [Compound 24, 3-((4,4-bis(octyloxy)butanoyl)oxy)-2-((((2-(1-methylpyrrolidin-2-yl)ethoxy)carbonyl)oxy)methyl)propyl (9Z,12Z)-octadeca-9,12-dienoate]	–	98% and 97%	61.34 nm and 66.88 nm and 63.16 nm	76.82 nm and 83.92 nm and 77.24 nm	0.027 and 0.033 and 0.025	46	397	% E [2, 6]: 99%; Number mean (nm) [3, 6]: 72.95 nm; PDI [3, 6]: 0.029; Z-avg (nm) [3, 6]: 88.39 nm; Editing Mean % Indel (mouse TTR gene; LNP i.v. 0.03 mg/kg, guide G502, Experiment 105): 11.34%; Editing Mean % Indel (mouse TTR gene; LNP i.v. 0.1 mg/kg, guide G502, Experiment 105): 40.54%; Serum TTR (Transthyretin (TTR); mouse, LNP i.v. 0.03 mg/kg, guide G502, Experiment 105): 772 µg/mL; Serum TTR % TSS (Transthyretin (TTR); mouse, LNP i.v. 0.03 mg/kg, guide G502, Experiment 105, relative to TSS control): 70%; Serum TTR (Transthyretin (TTR); mouse, LNP i.v. 0.1 mg/kg, guide G502, Experiment 105): 420 µg/mL; Serum TTR % TSS (Transthyretin (TTR); mouse, LNP i.v. 0.1 mg/kg, guide G502, Experiment 105, relative to TSS control): 38%
CCCCC/C=C\C/C=C\CCCCCCCC(=O)OCC(C)(COC(=O)CCC(OCCCCCCCC)OCCCCCCCC)COC(=O)OCCCN(CC)CC (stereo not drawn) [Compound 96, 3-((4,4-bis(octyloxy)butanoyl)oxy)-2-((((3-(diethylamino)propoxy)carbonyl)oxy)methyl)-2-methylpropyl (9Z,12Z)-octadeca-9,12-dienoate]	5.76	98%	65.94 nm	81.55 nm	0.019	58	449	–
CCCCC/C=C\C/C=C\CCCCCCCC(=O)OCC(COC(=O)CCC(OCCCCCCCC)OCCCCCCCC)COC(=O)CCN(CC)CC (stereo not drawn) [Compound 27, 3-((4,4-bis(octyloxy)butanoyl)oxy)-2-(((3-(diethylamino)propanoyl)oxy)methyl)propyl (9Z,12Z)-octadeca-9,12-dienoate]	5.35	97%	45 nm	66 nm	0.100	93	841	–
CCCCCCCCCCOC(=O)CCCCCCCC(=O)OCC(COC(=O)CCC(OCCCCCCCC)OCCCCCCCC)COC(=O)OCC1CCCN(CC)C1 (stereo not drawn) [Compound 72, 1-(3-((4,4-bis(octyloxy)butanoyl)oxy)-2-(((((1-ethylpiperidin-3-yl)methoxy)carbonyl)oxy)methyl)propyl) 9-decyl nonanedioate]	6.07	99%	75.22 nm	91.65 nm	0.002	52	479	–
CCCCC/C=C\C/C=C\CCCCCCCC(=O)OCC(COC(=O)CCC(OCCCCCCCC)OCCCCCCCC)COC(=O)OCC1CCN(CC)C1 (stereo not drawn) [Compound 51, 3-((4,4-bis(octyloxy)butanoyl)oxy)-2-(((((1-ethylpyrrolidin-3-yl)methoxy)carbonyl)oxy)methyl)propyl (9Z,12Z)-octadeca-9,12-dienoate]	7.3	98%	72.23 nm	86.15 nm	0.018	76	843	–
CCCCCCCCCCCCOC(=O)CCCCCCCC(=O)OCC(COC(=O)CCC(OCCCCCCCC)OCCCCCCCC)COC(=O)OCCCN(CC)CC (stereo not drawn) [Compound 92, 1-(3-((4,4-bis(octyloxy)butanoyl)oxy)-2-((((3-(diethylamino)propoxy)carbonyl)oxy)methyl)propyl) 9-dodecyl nonanedioate]	6.16	99%	77.35 nm	93.69 nm	0.022	62	470	–
CCCCCCCCCCOC(=O)CCCCCCCC(=O)OCC(COC(=O)CCCN(CC)CC)COC(=O)CCC(OCCCCCCCC)OCCCCCCCC (stereo not drawn) [Compound 75, 1-(3-((4,4-bis(octyloxy)butanoyl)oxy)-2-(((4-(diethylamino)butanoyl)oxy)methyl)propyl) 9-decyl nonanedioate]	6.45	98%	92.74 nm	110.9 nm	0.020	68	623	–
